Values quoted from earlier work, collected in patent US20250032463A1, “RAPAMYCIN-CONTAINING PHARMACEUTICAL COMPOSITION” (NOBELPHARMA CO., LTD., priority 2023, published 2025).

stability in aqueous solvents: unstable
SMILES: CO[C@H]1C[C@@H]2CC[C@@H](C)[C@@](O)(O2)C(=O)C(=O)N2CCCC[C@H]2C(=O)O[C@H]([C@H](C)C[C@@H]2CC[C@@H](O)[C@H](OC)C2)CC(=O)[C@H](C)/C=C(\C)[C@@H](O)[C@@H](OC)C(=O)[C@H](C)C[C@H](C)/C=C/C=C/C=C/1C [rapamycin, Rapamycin]
